molecular target: GST-tagged-Wee1 kinase (Homo sapiens, UniProt P30291); assay: Wee1 time-resolved fluorescence equilibrium binding assay (displacement of Oregon Green-labeled ATP-competitive kinase probe)
Method: Wee1 kinase was assayed using a time-resolved fluorescence equilibrium binding assay monitoring displacement of a rapidly reversible Oregon Green-labeled ATP-competitive kinase probe (N-(2-(2-(2-(4-(4-(5-chloro-4-(2-(1-hydroxycyclobutyl)thiazol-5-yl)-1H-pyrrolo[2,3-b]pyridin-2-yl)phenyl)piperazin-1-yl)ethoxy)ethoxy)ethyl)-2′,7′-difluoro-3′,6′-dihydroxy-3-oxo-3H-spiro[isobenzofuran-1,9′-xanthene]-5-carboxamide) by competitive Wee1 inhibitors.

Sequence of GST-tagged-Wee1 kinase (P30291 whole entry): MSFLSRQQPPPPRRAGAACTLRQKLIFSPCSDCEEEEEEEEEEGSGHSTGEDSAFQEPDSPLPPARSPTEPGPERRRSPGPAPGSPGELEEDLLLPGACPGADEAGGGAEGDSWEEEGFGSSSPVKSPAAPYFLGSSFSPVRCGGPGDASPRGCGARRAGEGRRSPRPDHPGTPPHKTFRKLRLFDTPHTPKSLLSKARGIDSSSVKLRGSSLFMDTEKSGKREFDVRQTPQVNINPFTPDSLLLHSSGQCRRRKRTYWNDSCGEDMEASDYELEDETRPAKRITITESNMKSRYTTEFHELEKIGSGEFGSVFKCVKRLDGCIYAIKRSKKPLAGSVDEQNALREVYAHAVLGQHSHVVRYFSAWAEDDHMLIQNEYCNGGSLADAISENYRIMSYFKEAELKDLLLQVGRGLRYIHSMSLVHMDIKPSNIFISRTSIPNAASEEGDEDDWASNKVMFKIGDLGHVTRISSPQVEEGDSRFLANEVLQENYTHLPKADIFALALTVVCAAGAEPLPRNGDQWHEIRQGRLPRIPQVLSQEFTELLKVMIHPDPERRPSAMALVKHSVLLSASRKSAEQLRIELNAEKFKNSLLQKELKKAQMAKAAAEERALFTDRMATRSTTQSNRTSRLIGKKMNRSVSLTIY

Structure (SMILES)	Ki [nM]
C=CCn1nc(-c2cccs2)c2nc(Nc3ccc4c(c3)CN(C)CC4)ncc2c1=O [Example 162, 6-allyl-2-[(2-methyl-1,2,3,4-tetrahydroisoquinolin-7-yl)amino]-8-(2-thienyl)pyrimido[4,5-d]pyridazin-5(6H)-one]	4
Cc1ccccc1-n1nc(-c2ccccc2)c2nc(Nc3ccc4c(c3)CN(C)CC4)ncc2c1=O [Example 171, 6-(2-methylphenyl)-2-[(2-methyl-1,2,3,4-tetrahydroisoquinolin-7-yl)amino]-8-phenylpyrimido[4,5-d]pyridazin-5(6H)-one]	0.6
Cc1ccccc1-n1nc(-c2cccc(N3CCCC3)n2)c2nc(Nc3ccc(N4CCN(C)CC4)cc3)ncc2c1=O [Example 182, 6-(2-methylphenyl)-2-{[4-(4-methylpiperazin-1-yl)phenyl]amino}-8-[6-(pyrrolidin-1-yl)pyridin-2-yl]pyrimido[4,5-d]pyridazin-5(6H)-one]	12
O=C1CCCN1c1ccc(Nc2ncc3c(=O)n(-c4ccccc4Cl)nc(-c4ccccc4)c3n2)cc1 [Example 168, 6-(2-chlorophenyl)-2-{[4-(2-oxopyrrolidin-1-yl)phenyl]amino}-8-phenylpyrimido[4,5-d]pyridazin-5(6H)-one]	2
Cn1cnc(-c2nn(-c3ncccc3Cl)c(=O)c3cnc(Nc4ccc(N5CCNCC5)cc4)nc23)c1 [Example 350, 6-(3-chloropyridin-2-yl)-8-(1-methyl-1H-imidazol-4-yl)-2-{[4-(piperazin-1-yl)phenyl]amino}pyrimido[4,5-d]pyridazin-5(6H)-one]	1.8
CN1CCN(c2ccc(Nc3ncc4c(=O)n(-c5c(Cl)cccc5Cl)nc(-c5cccc(C(=O)N6CCCCC6)c5)c4n3)cc2)CC1 [Example 194, 6-(2,6-dichlorophenyl)-2-{[4-(4-methylpiperazin-1-yl)phenyl]amino}-8-[3-(piperidin-1-ylcarbonyl)phenyl]pyrimido[4,5-d]pyridazin-5(6H)-one]	< 1
COC(=O)c1cccc(-c2nn(-c3c(Cl)cccc3Cl)c(=O)c3cnc(Nc4ccc(N5CCN(C)CC5)cc4)nc23)n1 [Example 159, methyl 6-[6-(2,6-dichlorophenyl)-2-{[4-(4-methylpiperazin-1-yl)phenyl]amino}-5-oxo-5,6-dihydropyrimido[4,5-d]pyridazin-8-yl]pyridine-2-carboxylate]	0.06
C=CCn1nc(-c2cccs2)c2nc(Nc3ccc(N4CCN(C(C)C)CC4)c(OC)c3)ncc2c1=O [Example 161, 6-allyl-2-{[4-(4-isopropylpiperazin-1-yl)-3-methoxyphenyl]amino}-8-(2-thienyl)pyrimido[4,5-d]pyridazin-5(6H)-one]	3
CN1Cc2cc(Nc3ncc4c(=O)n(-c5c(Cl)cccc5Cl)nc(C(F)(F)F)c4n3)ccc2C2(CC2)C1 [Example 413, 6-(2,6-dichlorophenyl)-2-[(2′-methyl-2′,3′-dihydro-1′H-spiro[cyclopropane-1,4′-isoquinolin]-7′-yl)amino]-8-(trifluoromethyl)pyrimido[4,5-d]pyridazin-5(6H)-one]	0.34
COc1cc(Nc2ncc3c(=O)n(-c4ccccc4Cl)nc(-c4cccs4)c3n2)ccc1N1CCN(C(C)C)CC1 [Example 174, 6-(2-chlorophenyl)-2-{[4-(4-isopropylpiperazin-1-yl)-3-methoxyphenyl]amino}-8-(2-thienyl)pyrimido[4,5-d]pyridazin-5(6H)-one]	0.1
CN1Cc2cc(Nc3ncc4c(=O)n(-c5c(Cl)cccc5Cl)ncc4n3)ccc2C2(CC2)C1 [Example 324, 6-(2,6-dichlorophenyl)-2-[(2′-methyl-2′,3′-dihydro-1′H-spiro[cyclopropane-1,4′-isoquinolin]-7′-yl)amino]pyrimido[4,5-d]pyridazin-5(6H)-one]	0.2
C=CCn1nc(-c2ccco2)c2nc(Nc3ccc(N4CCN(C(C)C)CC4)c(OC)c3)ncc2c1=O [Example 136, 6-allyl-8-(2-furyl)-2-{[4-(4-isopropylpiperazin-1-yl)-3-methoxyphenyl]amino}pyrimido[4,5-d]pyridazin-5(6H)-one]	14
CN1Cc2cc(Nc3ncc4c(=O)n(-c5c(Cl)cccc5Cl)nc(C5CCC5)c4n3)ccc2C2(CC2)C1 [Example 280, 8-cyclobutyl-6-(2,6-dichlorophenyl)-2-[(2′-methyl-2′,3′-dihydro-1′H-spiro[cyclopropane-1,4′-isoquinolin]-7′-yl)amino]pyrimido[4,5-d]pyridazin-5(6H)-one]	0.51
Cc1nn(-c2c(Cl)cccc2Cl)c(=O)c2cnc(Nc3cccc(NCCN4CCOCC4)c3)nc12 [Example 513, 6-(2,6-dichlorophenyl)-8-methyl-2-[(3-{[2-(morpholin-4-yl)ethyl]amino}phenyl)amino]pyrimido[4,5-d]pyridazin-5(6H)-one]	1.1
Cn1ccnc1-c1nn(-c2c(Cl)cccc2Cl)c(=O)c2cnc(Nc3ccc(N4CCNCC4)cc3)nc12 [Example 355, 6-(2,6-dichlorophenyl)-8-(1-methyl-1H-imidazol-2-yl)-2-{[4-(piperazin-1-yl)phenyl]amino}pyrimido[4,5-d]pyridazin-5(6H)-one]	2.4
Cc1nn(-c2c(Cl)cccc2Cl)c(=O)c2cnc(Nc3cccc(N4CCN(C5CCC5)CC4)c3)nc12 [Example 508, 2-{[3-(4-cyclobutylpiperazin-1-yl)phenyl]amino}-6-(2,6-dichlorophenyl)-8-methylpyrimido[4,5-d]pyridazin-5(6H)-one]	2
Cc1nn(-c2c(Cl)cccc2Cl)c(=O)c2cnc(Nc3cc4c(cc3F)CNCC4)nc12 [Example 480, 6-(2,6-dichlorophenyl)-2-[(7-fluoro-1,2,3,4-tetrahydroisoquinolin-6-yl)amino]-8-methylpyrimido[4,5-d]pyridazin-5(6H)-one]	1.3
O=c1c2cnc(Nc3ccc(N4CCNCC4)cc3)nc2c(-c2ccncc2)nn1-c1c(F)cccc1Cl [Example 297, 6-(2-chloro-6-fluorophenyl)-2-{[4-(piperazin-1-yl)phenyl]amino}-8-(pyridin-4-yl)pyrimido[4,5-d]pyridazin-5(6H)-one]	0.19
Cc1nn(-c2c(Cl)cccc2Cl)c(=O)c2cnc(Nc3ccc(C4CCN(C)CC4)cc3)nc12 [Example 456, 6-(2,6-dichlorophenyl)-8-methyl-2-{[4-(1-methylpiperidin-4-yl)phenyl]amino}pyrimido[4,5-d]pyridazin-5(6H)-one]	0.5
COc1cccc(-c2nn(-c3ccccc3)c(=O)c3cnc(Nc4ccc(N5CCN(C)CC5)cc4)nc23)c1 [Example 58, 8-(3-methoxyphenyl)-2-{[4-(4-methylpiperazin-1-yl)phenyl]amino}-6-phenylpyrimido[4,5-d]pyridazin-5(6H)-one]	2
Cc1nn(-c2c(Cl)cccc2Cl)c(=O)c2cnc(Nc3cccc(C(=O)NC4CCC(N(C)C)CC4)c3)nc12 (stereo not drawn) [Example 520, 3-{[6-(2,6-dichlorophenyl)-8-methyl-5-oxo-5,6-dihydropyrimido[4,5-d]pyridazin-2-yl]amino}-N-[4-(dimethylamino)cyclohexyl]benzamide]	0.45

More lines, now with the values ahead:

Ki [nM]	Structure (SMILES)
24	CN1CCN(c2ccc(Nc3ncc4c(=O)n(-c5ccccc5Cl)nc(-c5ccc(Cl)cc5Cl)c4n3)cc2)CC1 [Example 38, 6-(2-chlorophenyl)-8-(2,4-dichlorophenyl)-2-{[4-(4-methylpiperazin-1-yl)phenyl]amino}pyrimido[4,5-d]pyridazin-5(6H)-one]
2	CN1CCN(c2ccc(Nc3ncc4c(=O)n(-c5ccccc5Cl)nc(C5CCCC5)c4n3)cc2)CC1 [Example 55, 6-(2-chlorophenyl)-8-cyclopentyl-2-{[4-(4-methylpiperazin-1-yl)phenyl]amino}pyrimido[4,5-d]pyridazin-5(6H)-one]
0.61	CN1CCN(c2ccc(Nc3ncc4c(=O)n(-c5c(F)cccc5Cl)nc(-c5cnn(C)c5)c4n3)cc2)CC1 [Example 302, 6-(2-chloro-6-fluorophenyl)-2-{[4-(4-methylpiperazin-1-yl)phenyl]amino}-8-(1-methyl-1H-pyrazol-4-yl)pyrimido[4,5-d]pyridazin-5(6H)-one]
0.72	CN1CCN(c2ccc(Nc3ncc4c(=O)n(-c5c(Cl)cccc5Cl)nc(-c5cn(C)cn5)c4n3)cc2)CC1 [Example 338, 6-(2,6-dichlorophenyl)-8-(1-methyl-1H-imidazol-4-yl)-2-{[4-(4-methylpiperazin-1-yl)phenyl]amino}pyrimido[4,5-d]pyridazin-5(6H)-one]
4	CN1CCN(c2ccc(Nc3ncc4c(=O)n(-c5ccccc5)nc(-c5ccco5)c4n3)cc2)CC1 [Example 34, 8-(2-furyl)-2-{[4-(4-methylpiperazin-1-yl)phenyl]amino}-6-phenylpyrimido[4,5-d]pyridazin-5(6H)-one]
0.33	CCc1nn(-c2c(Cl)cccc2Cl)c(=O)c2cnc(Nc3ccc(N4CCN(C)CC4)cc3)nc12 [Example 388, 6-(2,6-dichlorophenyl)-8-ethyl-2-{[4-(4-methylpiperazin-1-yl)phenyl]amino}pyrimido[4,5-d]pyridazin-5(6H)-one]
0.5	CC(C)N1CCN(c2ccc(Nc3ncc4c(=O)n(-c5ccccc5Cl)nc(-c5ccccc5)c4n3)cc2)CC1 [Example 131, 6-(2-chlorophenyl)-2-{[4-(4-isopropylpiperazin-1-yl)phenyl]amino}-8-phenylpyrimido[4,5-d]pyridazin-5(6H)-one]
0.5	CC(C)N1CCN(c2ccc(Nc3ncc4c(=O)n(-c5ccccc5Cl)nc(-c5cccs5)c4n3)cc2)CC1 [Example 122, 6-(2-chlorophenyl)-2-{[4-(4-isopropylpiperazin-1-yl)phenyl]amino}-8-(2-thienyl)pyrimido[4,5-d]pyridazin-5(6H)-one]
0.7	Cc1nn(-c2ccccc2Cl)c(=O)c2cnc(Nc3ccc(N4CCN(CCCN(C)C)CC4)cc3)nc12 [Example 518, 6-(2-chlorophenyl)-2-[(4-{4-[3-(dimethylamino)propyl]piperazin-1-yl}phenyl)amino]-8-methylpyrimido[4,5-d]pyridazin-5(6H)-one]

Reference: patent US8796289B2 (AbbVie Inc., priority 2011, dated 2014)
